Test results published in patent publication US4650907A, “Nonaromatic fluoroallylamine MAO inhibitors” (Merrell Dow Pharmaceuticals Inc., priority 1985, dated 1987).

What was measured:
MAO-B [1] = molecular target: T1, MAO-B (Rattus norvegicus, UniProt P19643); experiment: Inhibition of MAO - in vitro, partially purified mitochondria from rat brain, 14C-phenethylamine (PEA) substrate (MAO-B); assay type: biochemical; conditions: substrate 14C-phenethylamine (PEA), preferred substrate for MAO-B
T1 construct: preparing mitochondria from rat brain by homogenation in phosphate buffer; from tissue; host or cells: rat brain mitochondria
T1 sequence (P19643 1-520): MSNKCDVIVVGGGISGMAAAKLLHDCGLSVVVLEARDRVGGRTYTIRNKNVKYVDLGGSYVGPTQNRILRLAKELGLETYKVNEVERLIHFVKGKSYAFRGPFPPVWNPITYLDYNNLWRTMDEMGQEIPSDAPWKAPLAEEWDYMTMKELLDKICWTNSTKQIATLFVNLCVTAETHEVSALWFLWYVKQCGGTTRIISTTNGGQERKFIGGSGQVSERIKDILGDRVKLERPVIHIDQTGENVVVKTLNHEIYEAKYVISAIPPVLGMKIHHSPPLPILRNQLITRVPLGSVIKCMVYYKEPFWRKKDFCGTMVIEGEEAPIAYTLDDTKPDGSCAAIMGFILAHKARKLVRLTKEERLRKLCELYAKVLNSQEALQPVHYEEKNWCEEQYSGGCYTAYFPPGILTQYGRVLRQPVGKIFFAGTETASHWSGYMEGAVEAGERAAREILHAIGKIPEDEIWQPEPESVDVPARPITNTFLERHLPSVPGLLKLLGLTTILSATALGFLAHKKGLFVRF
Text: (§1) The ability of a compound of structure 1 to inhibit MAO can be determined in vitro by the method of A. Christmas et al., Br. J. Pharmacol. 45, 490 (1972) in partially purified mitochondria from rat brain using ^14 C otyramine or ^14 C phenethylamine and ^14 C 5-HT as the substrate. The MAO inhibitory activity of a compound is expressed as the "IC50 " value, which is the molar concentration required to produce 50% inhibition of the enzyme. The IC50 values for certain compounds of structure 1 were determined using the above-described method, and the results are set forth in Table I.
(§2) The selectivity of a compound of structure 1 with respect to inhibition of MAO-A and MAO-B can be determined by preparing mitochondria from rat brain by homogenation in phosphate buffer (0.1 M, pH 7.2) followed by differential centrifugation. The mitochondria are suspended in the same buffer, the test compound is added at the desired concentration, and the system is incubated. At different time intervals, aliquots are taken and MAO activity is measured using ^14 C 5-hydroxytryptamine (5HT; a preferred substrate for MAO-A) or 14C -phenethylamine (PEA; a preferred substrate for MAO-B) as the substrates. The selectivity is expressed as the ratio of the inhibitory activity against MAO-B versus the inhibitory activity against MAO-A. (Zreika, McDonald, Bey, Palfreyman, J. Neurochem., 448-454 (1984)).

MAO-A [2] = molecular target: T2, MAO-A (Rattus norvegicus, UniProt P21396); experiment: Inhibition of MAO - in vitro, partially purified mitochondria from rat brain, 14C 5-hydroxytryptamine (5-HT) substrate (MAO-A); assay type: biochemical; conditions: substrate 14C 5-hydroxytryptamine (5HT), preferred substrate for MAO-A
T2 construct: preparing mitochondria from rat brain by homogenation in phosphate buffer; from tissue; host or cells: rat brain mitochondria
T2 sequence (P21396 1-526): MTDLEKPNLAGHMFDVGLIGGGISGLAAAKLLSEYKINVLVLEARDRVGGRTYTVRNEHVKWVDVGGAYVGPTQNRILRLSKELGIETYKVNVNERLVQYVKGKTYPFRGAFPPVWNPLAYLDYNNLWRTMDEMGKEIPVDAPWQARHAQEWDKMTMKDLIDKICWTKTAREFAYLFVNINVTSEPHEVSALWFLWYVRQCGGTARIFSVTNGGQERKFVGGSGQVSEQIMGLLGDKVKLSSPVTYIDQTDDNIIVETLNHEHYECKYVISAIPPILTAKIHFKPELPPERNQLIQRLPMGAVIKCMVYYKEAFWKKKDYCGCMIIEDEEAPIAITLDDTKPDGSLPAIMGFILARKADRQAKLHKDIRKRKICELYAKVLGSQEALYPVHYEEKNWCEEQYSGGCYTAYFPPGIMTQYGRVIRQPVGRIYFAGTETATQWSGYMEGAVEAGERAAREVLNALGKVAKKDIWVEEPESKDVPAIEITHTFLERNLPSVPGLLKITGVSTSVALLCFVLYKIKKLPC
Text: as §1, §2

[3] = cited from earlier work; for clinical antidepressant effect: man
MAO = conditions: selective at lower dosages, less selective at higher dosages; cited from earlier work
MAO-B [4] = molecular target: T1, MAO-B; experiment: Inhibition of MAO - ex vivo, brain mitochondria of orally dosed rats, 14C phenethylamine substrate (MAO-B); assay type: in vivo; conditions: po, brain mitochondrial fraction
Method: (§3) The test compound is administered orally (po) to rats and the animals are killed at various times after treatment. The brain is removed and a mitochondrial fraction, described in Example 12 is prepared. MAO activity is determined using ^14 C p-tyramine, as the substrate. Selectivity can be determined by repeating the above-described test using either ^14 C 5-hydroxytryptamine (for MAO-A) or ^14 C phenethylamine (for MAO-B) as the substrate for determining the % inhibition.

MAO-A [5] = molecular target: T2, MAO-A; experiment: Inhibition of MAO - ex vivo, brain mitochondria of orally dosed rats, 14C 5-hydroxytryptamine substrate (MAO-A); assay type: in vivo; conditions: po, brain mitochondrial fraction
Method: as §3

Compound	IC50 (MAO-B [1]) [nM]	IC50 (MAO-A [2]) [nM]	preferential inhibition of MAO (in words) (MAO)	further results
CCCCCCCCCCC/C(=C\F)CN [(E)-2-Undecyl-3-fluoroallylamine]	500	750	–	–
CCC(C)/C(=C\F)CN (centres unmarked) [(E)-2-sec-Butyl-3-fluoroallylamine]	7000	170000	–	–
CCCCCC/C(=C\F)CN [(E)-2-Hexyl-3-fluoroallylamine]	7	170	–	–
C#CCN(C)CCCOc1ccc(Cl)cc1Cl [clorgyline]	–	–	–	clinical antidepressant effect [3]: clinically effective antidepressant agents
CCCC/C(=C\F)CN [(E)-2-Butyl-3-fluoroallylamine]	2	110	–	–
NNCCc1ccccc1 [phenelzine]	–	–	not preferential in their action upon MAO	–
C#CCN(C)Cc1ccccc1 [pargyline]	–	–	MAO-B is preferentially inhibited	clinical antidepressant effect [3]: clinically effective antidepressant agents
CC(C)C/C(=C\F)CN [(E)-2-Isobutyl-3-fluoroallylamine]	30	2300	–	ED50 (MAO-B [4]): 0.05 mg/kg; ED50 (MAO-A [5]): 0.8 mg/kg
N[C@@H]1C[C@H]1c1ccccc1 (relative stereo) [tranylcypromine]	–	–	not preferential in their action upon MAO	–
C#CCN(C)[C@H](C)Cc1ccccc1 [L-deprenyl]	–	–	MAO-B is preferentially inhibited	cheese effect ([3]; low dosages where preferential inhibition of MAO-B occurs): not observed; clinical antidepressant effect [3]: clinically effective antidepressant agents; potentiation of L-DOPA in Parkinson's disease ([3]; treatment of Parkinson's disease): potentiate L-DOPA for the treatment of Parkinson's disease without producing peripheral side effects
CC(C)/C(=C\F)CN [(E)-2-Isopropyl-3-fluoroallylamine]	2500	170000	–	–
Cc1cc(C(=O)NNCc2ccccc2)no1 [isocarboxazid]	–	–	not preferential in their action upon MAO	–
CCCCCCC/C(=C\F)CN [(E)-2-Heptyl-3-fluoroallylamine]	4.5	60	–	–
